Six molecules from ChEMBL document CHEMBL1148361, “Total synthesis and anti-tubulin activity of epi-c3 analogues of cryptophycin-24” (J Med Chem, 2004) can be followed below.

For assay [1], the system named is MCF7. The experiment in a line: In vitro inhibitory activity of compound against induced cytotoxicity in MCF-7 cell line. In kind it is functional, cell-based, Homo sapiens.
The nature of assay [2]: In vitro inhibitory activity of compound against microtubule polymerization in a tubulin assembly assay. In kind it is functional.
The nature of assay [3]: Resistance factor was expressed as the IC50 of resistance cell line / IC50 of sensitive cell line. In kind it is functional.
Assay [4] deals with NCI/ADR-RES. The assay can be described thus: In vitro inhibitory activity of compound against induced cytotoxicity in multidrug-resistant MCF-7/ADR breast cancer cell line. In kind it is functional, cell-based, Homo sapiens.

Consider `COc1ccc(C[C@H]2NC(=O)/C=C/CC(C(C)C3OC3c3ccccc3)OC(=O)[C@@H](CC(C)C)OC(=O)CCNC2=O)cc1Cl` (single isomer, unassigned), for which the IC50 (usually the concentration that gives 50% inhibition) in assay [1] (Homo sapiens, MCF7) was determined as 0.28 nM; in assay [2], 10600 nM; in assay [4] (Homo sapiens, NCI/ADR-RES) it was 0.92 nM. The molecule further displayed a Resistance factor in assay [3] of 3.3.
Consider `COc1ccc(C[C@H]2NC(=O)/C=C/C[C@@H](C(C)[C@H]3O[C@@H]3c3ccccc3)OC(=O)[C@H](CC(C)C)OC(=O)CCNC2=O)cc1` (single isomer, unassigned) [ARENASTATIN A], for which the IC50 turned out to be 0.13 nM in assay [1] (Homo sapiens, MCF7); 15800 nM in assay [2]; 250 nM in assay [4] (nci/adr-res). This molecule came in with a Resistance factor in assay [3] of 1.9.
Consider `COc1ccc(C[C@H]2NC(=O)/C=C/C[C@@H]([C@H](C)/C=C/c3ccccc3)OC(=O)[C@@H](CC(C)C)OC(=O)CCNC2=O)cc1`, for which the IC50 is over 25 nM in assay [1] (Homo sapiens, MCF7); over 100000 nM in assay [2]; over 25 nM in assay [4] (Homo sapiens, NCI/ADR-RES).
With `COc1ccc(C[C@H]2NC(=O)/C=C/C[C@@H]([C@H](C)/C=C/c3ccccc3)OC(=O)[C@@H](CC(C)C)OC(=O)CCNC2=O)cc1Cl`, the IC50 in assay [1] (Homo sapiens, MCF7) was over 25 nM; in assay [2], over 100000 nM; in assay [4] (Homo sapiens, NCI/ADR-RES), over 25 nM.
Turning to `COc1ccc(C[C@H]2NC(=O)/C=C/C[C@@H](C(C)[C@H]3O[C@@H]3c3ccccc3)OC(=O)C(CC(C)C)OC(=O)CCNC2=O)cc1` (single isomer, unassigned) [ARENASTATIN A], the IC50 amounted to 88 nM in assay [1] (mcf7), 13700 nM in assay [2] and 2400 nM in assay [4] (nci/adr-res). Moreover, the Resistance factor in assay [3] came to 27.3.
Regarding `COc1ccc(C[C@H]2NC(=O)/C=C/C[C@@H]([C@H](C)[C@H]3O[C@@H]3c3ccccc3)OC(=O)[C@H](CC(C)C)OC(=O)[C@H](C)CNC2=O)cc1Cl` [CRYPTOPHYCIN A], the IC50 in assay [1] (Homo sapiens, MCF7) is 0.009 nM; in assay [2] it was 3400 nM; in assay [4] (Homo sapiens, NCI/ADR-RES), 0.018 nM. The molecule further yielded a Resistance factor in assay [3] of 2.
